In patent US20240400571A1, “5,6 UNSATURATED BICYCLIC HETEROCYLES USEFUL AS INHIBITORS OF NOD-LIKE RECEPTOR PROTEIN 3” (Merck Sharp & Dohme LLC, priority 2023, published 2024) one finds EC50 data, which are given here for 19 compounds.

T1 sequence (Q96P20 whole entry): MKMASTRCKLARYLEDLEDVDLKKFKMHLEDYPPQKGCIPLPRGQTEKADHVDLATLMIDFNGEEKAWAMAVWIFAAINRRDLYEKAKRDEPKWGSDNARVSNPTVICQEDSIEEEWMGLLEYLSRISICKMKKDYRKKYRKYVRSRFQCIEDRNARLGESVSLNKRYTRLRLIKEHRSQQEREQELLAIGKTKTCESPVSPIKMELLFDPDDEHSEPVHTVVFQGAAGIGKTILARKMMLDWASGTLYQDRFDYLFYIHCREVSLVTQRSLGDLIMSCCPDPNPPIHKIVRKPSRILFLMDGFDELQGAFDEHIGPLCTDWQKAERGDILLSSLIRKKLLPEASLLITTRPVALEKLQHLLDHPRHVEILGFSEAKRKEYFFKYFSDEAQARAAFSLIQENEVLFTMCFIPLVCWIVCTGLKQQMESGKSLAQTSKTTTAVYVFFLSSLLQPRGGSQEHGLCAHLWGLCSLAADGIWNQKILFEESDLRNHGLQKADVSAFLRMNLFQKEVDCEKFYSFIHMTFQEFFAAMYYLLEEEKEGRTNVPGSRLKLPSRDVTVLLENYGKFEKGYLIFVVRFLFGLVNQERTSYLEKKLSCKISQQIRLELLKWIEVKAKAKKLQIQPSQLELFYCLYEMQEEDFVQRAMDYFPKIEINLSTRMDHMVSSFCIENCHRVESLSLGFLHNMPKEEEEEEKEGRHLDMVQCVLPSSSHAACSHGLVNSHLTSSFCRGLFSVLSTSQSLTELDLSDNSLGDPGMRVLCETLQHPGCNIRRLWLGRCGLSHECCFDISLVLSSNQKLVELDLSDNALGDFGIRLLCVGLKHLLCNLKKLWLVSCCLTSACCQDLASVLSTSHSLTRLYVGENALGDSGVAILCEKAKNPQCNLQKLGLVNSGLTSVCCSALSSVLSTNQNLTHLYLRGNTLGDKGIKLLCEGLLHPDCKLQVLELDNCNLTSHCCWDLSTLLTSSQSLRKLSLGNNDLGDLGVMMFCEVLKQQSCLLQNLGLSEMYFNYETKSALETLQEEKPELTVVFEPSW

The test addresses T1, NLRP3 inflammasome (Homo sapiens, UniProt Q96P20).
T1 construct: host or cells: THP-1 human monocytic cells, treated with PMA and stimulated with gramicidin
As to the kind of experiment: ASC-SPECK formation in THP-1 cells after gramicidin stimulation (NLRP3 inflammasome activation). Conditions: PMA-treated human monocytic THP-1 cells; compound 1 h before 12.5 μg/ml gramicidin, 3-hour treatment; ASC SPECK imaging; read-out: EC50 values (nM) for Examples that inhibit NLRP3 inflammasome activation. Format: cell-based. On the procedure:
The ability of compounds to inhibit NLRP3 inflammasome activation was determined in vitro by monitoring formation of the ASC-SPECK in human monocytic THP-1 cells after stimulation. THP-1 cells (ATCC catalog #TIB-202) were maintained in complete growth media containing Roswell Park Memorial Institute RPMI (ATCC catalog #30-2001), 10% heat inactivated fetal bovine serum, 1× penicillin/streptomycin and 0.05 mM 2-mercaptoethanol. At the start of the assay, undifferentiated THP-1 cells were plated at a density of 20,000 cells per well in a 384-well plate (Poly-D-lysine coated Cell Carrier Ultra microplate, Perkin Elmer catalog #6057500) in complete growth media supplemented with 10 ng/ml phorbol 12-myristate 13-acetate (PMA; Sigma catalog #P8139), and then incubated overnight. The next day, media was replaced with assay media [RPMI (Gibco catalog #11875-093), 0.01% bovine serum albumin (BSA)]. Compounds were serially diluted in DMSO and then added to wells one hour prior to the addition of 12.5 μg/ml Gramicidin (Enzo Lifescience, catalog #ALX-350-233-M005). All incubations were carried out at 37° C. (5% CO2/95% air). Following a 3-hour treatment with gramicidin, cells are fixed with 4% paraformaldehyde and stored at 4° C. until immunofluorescence staining.
Immunofluorescence staining: Anti-ASC antibody (MBL catalog #D086-3) was desalted and labeled with Alexa 488 antibody labeling kit (Thermo catalog #A20181) prior to use as described below. After fixation, the following steps were carried out at room temperature. Cells were first permeabilized with 0.3% Triton X-100 in phosphate-buffered saline (PBS) for 15 minutes and then incubated in blocking buffer containing 5% goat serum, 0.3% tween-20 and 0.03% sodium azide in PBS for 1 hour. Cells were stained with a mixture of ASC-Alexa 488 antibody (diluted 1:200 in blocking buffer) and nuclear stain DRAQ5 (1:5000 in blocking buffer, Thermo catalog #62251) in blocking buffer for 1 hour. Following a wash with 0.3% Tween-20 in PBS, plates were imaged with an Opera Phenix High Content Screening System. The number of DRAQ5 positive cells containing ASC SPECKS were quantified in each well.
Data analysis: EC50 values were calculated by standard curve-fitting analysis using an internally developed program in TIBCO Spotfire software.
As a reminder, the EC50 is the concentration giving half of the maximal effect. Take `Cc1c(-c2ccc(C(F)(F)F)cc2O)nnc2c1ncn2[C@H]1CCCN2CCC[C@H]12` (single isomer, unassigned) [Example 33]: the EC50 was determined as 1360 nM.

For the compound `CCN1[C@H]2CC[C@@H]1[C@H](n1cnc3c(C)c(-c4ccc(C(F)(F)F)cc4O)nnc31)CC2` (single isomer, unassigned) [Example 30], the 50% effective concentration (EC50) was determined as 9 nM. In the case of `Cc1c(-c2ccc3c(c2O)CC(F)(F)C3)nnc2c1ncn2[C@@H]1CCCN(C)C1` [Example 21, (R)-2,2-difluoro-5-(4-methyl-7-(1-methylpiperidin-3-yl)-7H-imidazo[4,5-c]pyridazin-3-yl)-2,3-dihydro-1H-inden-4-ol], the EC50 was determined as 996 nM. The result for `Cc1c(-c2c(O)cc(Cl)cc2F)nnc2c1ncn2[C@@H]1CCCN(C)C1` [Example 26, 5-chloro-3-fluoro-2-(4-methyl-7-((R)-1-methylpiperidin-3-yl)-7H-imidazo-[4,5-c]pyridazin-3-yl)phenol] reads 81 nM.

For `Cc1c(-c2ccc(C(F)(F)F)cc2O)nnc2c1ncn2[C@H]1CC[C@H]2CC[C@@H]1N2` (single isomer, unassigned) [Example 25], the EC50 was determined as 1010 nM.

For the compound `CN1CCCC(n2cnc3cc(-c4ccc(C(F)(F)F)cc4O)nnc32)C1` (racemic) [Example 8, (R and S)-2-(7-(1-methylpiperidin-3-yl)-7H-imidazo[4,5-c]pyridazin-3-yl)-5-(trifluoromethyl)phenol], the EC50 was 1000 nM.

For `Cc1c(-c2ccc(C(F)(F)F)cc2O)nnc2c1ncn2[C@@H]1CCCNC1` [Example 5, (R)-2-(4-methyl-7-(piperidin-3-yl)-7H-imidazo[4,5-c]pyridazin-3-yl)-5-(trifluoromethyl)phenol], the EC50 was found to be 143 nM. With `CCN1CCC[C@@H](n2cnc3c(C)c(-c4ccc(Cl)cc4O)nnc32)C1` [Example 18, (R)-5-chloro-2-(7-(1-ethylpiperidin-3-yl)-4-methyl-7H-imidazo[4,5-c]pyridazin-3-yl)phenol] the figure was 29 nM. With `CCN1CC[C@@H](O)[C@@H](n2cnc3c(C)c(-c4ccc(C(F)(F)F)cc4O)nnc32)C1` [Example 12, (3S,4R)-1-ethyl-3-(3-(2-hydroxy-4-(trifluoro-methyl)phenyl)-4-methyl-7H-imidazo[4,5-c]pyridazin-7-yl)piperidin-4-ol] the figure was 103 nM; with `CCN1[C@@H]2CC[C@H]1[C@@H](n1cnc3c(C)c(-c4ccc(C(F)(F)F)cc4O)nnc31)CC2` (single isomer, unassigned) [Example 31], 889 nM. With `Cc1c(-c2ccc(C(F)(F)F)cc2O)nnc2c1ncn2[C@H]1CN(C)CC[C@H]1O` [Example 11, (3S,4R)-3-(3-(2-hydroxy-4-(trifluoro-methyl)phenyl)-4-methyl-7H-imidazo[4,5-c]pyridazin-7-yl)-1-methylpiperidin-4-ol] the figure was 147 nM; with `Cc1c(-c2ccc(C(F)(F)F)cc2O)nnc2c1nc(C)n2[C@@H]1CCCN(C)C1` [Example 14, (R)-2-(4,6-dimethyl-7-(1-methylpiperidin-3-yl)-7H-imidazo[4,5-c]pyridazin-3-yl)-5-(trifluoromethyl)phenol], 567 nM. As to `[2H]C([2H])([2H])N1CCC[C@@H](n2cnc3c(C)c(-c4ccc(C(F)(F)F)cc4O)nnc32)C1` [Example 35, (R)-2-(4-methyl-7-(1-(methyl-d3)piperidin-3-yl)-7H-imidazo[4,5-c]pyridazin-3-yl)-5-(trifluoromethyl)phenol], the half-maximal effective concentration (EC50) came to 29 nM.

With `Cc1c(-c2ccc(C(F)(F)F)cc2O)nnc2c1ncn2[C@H]1CNCC[C@H]1O` [Example 6, (3S,4R)-3-(3-(2-hydroxy-4-(trifluoro-methyl)phenyl)-4-methyl-7H-imidazo[4,5-c]pyridazin-7-yl)piperidin-4-ol], the EC50 is 550 nM. With `Cc1c(-c2ccc(C(F)(F)F)cc2O)nnc2c1ncn2[C@@H]1CCCN(C(C)C)C1` [Example 22, (R)-2-(7-(1-isopropylpiperidin-3-yl)-4-methyl-7H-imidazo[4,5-c]pyridazin-3-yl)-5-(trifluoromethyl)phenol] the figure was 20 nM; with `Cc1c(-c2ccc(Cl)cc2O)nnc2c1ncn2[C@@H]1CCCN(C)C1` [Example 17, (R)-5-chloro-2-(4-methyl-7-(1-methylpiperidin-3-yl)-7H-imidazo[4,5-c]pyridazin-3-yl)phenol], 28 nM; with `Cc1c(-c2ccc3c(c2O)CCC3)nnc2c1ncn2[C@@H]1CCCN(C)C1` [Example 16, (R)-5-(4-methyl-7-(1-methylpiperidin-3-yl)-7H-imidazo[4,5-c]pyridazin-3-yl)-2,3-dihydro-1H-inden-4-ol], 23 nM. The result for `Cc1c(-c2ccc(C(F)(F)F)cc2O)nnc2c1ncn2[C@@H]1CC[C@@H]2CC[C@H]1N2C` (single isomer, unassigned) [Example 29] reads 26 nM; that for `CCN1CCC[C@@H](n2ccc3cc(-c4c(C)cc(C(F)(F)F)cc4O)nnc32)C1` [Example 1, (R)-2-(7-(1-ethylpiperidin-3-yl)-7H-pyrrolo[2,3-c]pyridazin-3-yl)-3-methyl-5-(trifluoromethyl)phenol], 19 nM.
